31 compounds from PMC6792352, “Limited Chemical Structural Diversity Found to Modulate Thyroid Hormone Receptor in the Tox21 Chemical Library” (Environmental Health Perspectives, 2019) can be followed below.

The series relates to GH3-TRE-Luc cell line. Conditions: read-out: AC50 (uM) modified / 1000, viability, 1 nM T3 present, 24 h.

Where a name gives a salt, the structure may show the parent alone. Read-outs that look alike come from different tables or passages of the source. Some results are limits rather than exact numbers.

In the case of `Cc1c(N)nc([C@H](CC(N)=O)NC[C@H](N)C(N)=O)nc1C(=O)N[C@H](C(=O)N[C@H](C)[C@@H](O)[C@H](C)C(=O)N[C@H](C(=O)NCCc1nc(-c2nc(C(=O)NCCC[S+](C)C)cs2)cs1)[C@@H](C)O)[C@@H](O[C@@H]1O[C@@H](CO)[C@@H](O)[C@H](O)[C@@H]1O[C@H]1O[C@H](CO)[C@@H](O)[C@H](OC(N)=O)[C@@H]1O)c1c[nH]cn1` [Bleomycin sulfate], where the note is “Tox21_110001=Tox21_113599”, the CC50 is 1.85 µM.
In the case of `CCc1nc(N)nc(N)c1-c1ccc(Cl)cc1` [Pyrimethamine], the CC50 is, setting by setting: (Tox21_110001=Tox21_201834) > 90 µM; (Tox21_110001=Tox21_300129) 42.7 µM.
As for `Nc1c(S(=O)(=O)O)cc(Br)c2c1C(=O)c1ccccc1C2=O` [1-Amino-4-bromo-9,10-dioxo-9,10-dihydroanthracene-2-sulfonic] [1-Amino-4-bromo-9,10-dioxo-9,10-dihydroanthracene-2-sulfonic acid], the CC50 (Tox21_110001=Tox21_301752) is 60.1 µM.
As for `Nc1ccc(Nc2ccccc2)cc1` [N-Phenyl-1,4-benzenediamine hydrochloride], the CC50 (Tox21_110001=Tox21_200117) amounted to 57.3 µM.
Regarding `O=C(CCCN1CCC(O)(c2ccc(Cl)cc2)CC1)c1ccc(F)cc1` [Haloperidol], the CC50 reads like this: (Tox21_110001=Tox21_110162) 20.6 µM; (Tox21_110001=Tox21_300475) 52.1 µM.
For the compound `CCCCCCCC[n+]1ccn(C)c1` [1-Methyl-3-octylimidazolium trifluoromethanesulfonate], under “Tox21_110001=Tox21_200708”, the CC50 stood at 75.9 µM.
As for `Cc1oncc1C(=O)Nc1ccc(C(F)(F)F)cc1` [Leflunomide], the CC50 (Tox21_110001=Tox21_110182) was 9.39 µM and the CC50 (Tox21_110001=Tox21_301873) is > 90 µM.
`CCCCCCCCCc1ccc(O)cc1` [4-Nonylphenol, branched]: the CC50 amounted to 28.7 µM (Tox21_110001=Tox21_111040), 23.6 µM (Tox21_110001=Tox21_201528) and 22.3 µM (Tox21_110001=Tox21_300576).
As for `Clc1ccc2c(c1)C(N1CCNCC1)=Nc1ccccc1O2` [Amoxapine], the CC50 (Tox21_110001=Tox21_302352) turned out to be 20.3 µM.
Regarding `O=[N+]([O-])c1ccc(O)cc1` [4-Nitrophenol], the CC50 (Tox21_110001=Tox21_300117) stood at 67.6 µM.
As to `O=C(O)CCCC(=O)O` [Glutaric acid], the CC50 (Tox21_110001=Tox21_302871) came to 35.4 µM.
On to `O=C1OC(c2ccc(O)cc2)(c2ccc(O)cc2)c2ccccc21` [Phenolphthalein], for which the CC50 runs as follows: (Tox21_110001=Tox21_110838) 16.8 µM; (Tox21_110001=Tox21_202219) 25.4 µM; (Tox21_110001=Tox21_300282) 49.8 µM.
As to `Oc1cccc2cccnc12` [8-Hydroxyquinoline sulfate], the CC50 (Tox21_110001=Tox21_303537) is 1.43 µM.
For `C[C@H](Cc1ccc(O)c(O)c1)[C@@H](C)Cc1ccc(O)c(O)c1` [Masoprocol], under “Tox21_110001=Tox21_110210”, the CC50 amounted to 9.04 µM.
In the case of `Clc1ccc(COC(Cn2ccnc2)c2ccc(Cl)cc2Cl)cc1` (stereo not drawn) [Econazole nitrate], the CC50 stood at 13.9 µM (Tox21_110001=Tox21_110852), 23.8 µM (Tox21_110001=Tox21_200771) and 29.6 µM (Tox21_110001=Tox21_303391).
For `COc1ccc(C(Cl)=C(c2ccc(OC)cc2)c2ccc(OC)cc2)cc1` [Chlorotrianisene], the CC50 (Tox21_110001=Tox21_202361) stood at 13.6 µM.
In the case of `CCCCNC(=O)OCC#CI` [3-Iodo-2-propynyl-N-butylcarbamate], the CC50 was 15.9 µM (Tox21_110001=Tox21_201864) and 4.22 µM (Tox21_110001=Tox21_301117).
On to `CC1=CC(=O)c2ccccc2C1=O` [Menadione], for which, for the setting “Tox21_110001=Tox21_301367”, the CC50 worked out at 13 µM.
Turning to `CC1CC(OC(=O)c2ccccc2O)CC(C)(C)C1` (stereo not drawn) [3,3,5-Trimethylcyclohexyl salicylate], the CC50 by setting is: (Tox21_110001=Tox21_111174) 42.4 µM; (Tox21_110001=Tox21_303082) 72.7 µM.
In the case of `O=C1CN(/N=C/c2ccc(-c3ccc([N+](=O)[O-])cc3)o2)C(O)=N1` [Dantrolene sodium], the CC50 came to 11.2 µM (Tox21_110001=Tox21_112013) and 48.2 µM (Tox21_110001=Tox21_301997).
For the compound `COc1cc(/C=C/C(=O)CC(=O)/C=C/c2ccc(O)c(OC)c2)ccc1O` [Curcumin], the CC50 (Tox21_110001=Tox21_110803) came out at 22.1 µM and the CC50 (Tox21_110001=Tox21_201116) was found to be 26.5 µM.
Take `CN(C)C(=S)SSC(=S)N(C)C` [Thiram]: the CC50 worked out at 0.159 µM (Tox21_110001=Tox21_111150), 12.7 µM (Tox21_110001=Tox21_201569) and 0.0524 µM (Tox21_110001=Tox21_301102).
`CCCCCCCCCCCCCC[P+](CCCCCC)(CCCCCC)CCCCCC` [Trihexyltetradecylphosphonium bromide]: the CC50 (Tox21_110001=Tox21_200809) is 5.4 µM.
Regarding `COc1cc([C@@H]2c3cc4c(cc3[C@@H](O[C@@H]3O[C@@H]5CO[C@@H](C)O[C@H]5[C@H](O)[C@H]3O)[C@H]3COC(=O)[C@H]23)OCO4)cc(OC)c1O` [Etoposide], the CC50 (Tox21_110001=Tox21_110630) turned out to be 6.45 µM and the CC50 (Tox21_110001=Tox21_302201) came out at 2.85 µM.
For `CCC(C)(C)C(=O)O[C@H]1C[C@@H](C)C=C2C=C[C@H](C)[C@H](CC[C@@H]3C[C@@H](O)CC(=O)O3)[C@H]21` [Simvastatin], the CC50 (Tox21_110001=Tox21_300400) came out at 72.4 µM.
As for `O=C1OC2(c3ccccc31)c1cc(Br)c(O)c(Br)c1Oc1c2cc(Br)c(O)c1Br` [Eosin], the CC50 was 9.05 µM (Tox21_110001=Tox21_112323) and 8.28 µM (Tox21_110001=Tox21_302152).
As for `CCCCCCCCCCCCN` [Dodecylamine hydrochloride], where the note is “Tox21_110001=Tox21_301702”, the CC50 came out at 19.6 µM.
With `Nc1ccccc1N` [1,2-Phenylenediamine], the CC50 (Tox21_110001=Tox21_400014) was determined as 73.8 µM.
On to `CN(C)CCOc1ccccc1Cc1ccccc1` [Phenyltoloxamine citrate], for which the CC50 (Tox21_110001=Tox21_110862) came to 9.16 µM.
`NC(=O)c1ncn([C@@H]2O[C@H](CO)[C@@H](O)[C@H]2O)n1` [Ribavirin]: the CC50 (Tox21_110001=Tox21_110259) came to 40.1 µM.
In the case of `CN(C)CCCN1c2ccccc2CCc2ccc(Cl)cc21` [Clomipramine], for the setting “Tox21_110001=Tox21_110117”, the CC50 was found to be 8.96 µM.
